Test [1] addresses IL-1β:IL-1RI:IL-1RAcP complex (Homo sapiens, UniProt P01584+P14778). Put plainly: Receptor complex immunoprecipitation pull-down with IL-1β western blot. Type of test: biochemical. The settings on record: for IL-1β pull down inhibition: concentration not given. On the procedure: IL-1β (20 ng μl^−1), IL-1RI (100 ng μl^−1), and 6xHis-tagged IL-1RAcP (40 ng μl^−1) were incubated with parent Peptide 1.0, a peptide variant, or the antibody inhibitor at various concentrations in 50 μl of PBS for 1 h at room temperature under rotation. In parallel, IL-1β, IL-1RI, and 6xHis-tagged IL-1RAcP were allowed to interact without parent Peptide 1.0 as a positive control. IL-1β by itself acted as a negative control. BcMag Protein G Magnetic Beads (50 μl, Bioclone) were washed 3 times with washing buffer (57.7 mM Na2HPO4, 42.3 mM NaH2PO4, pH 7.0), incubated with anti-6xHis mouse monoclonal antibody (1 μg, Abcam) for 30 min under rotation, isolated with neodymium magnets, and washed three times with washing buffer (57.7 mM Na2HPO4, 42.3 mM NaH2PO4, pH 7.0). Protein complex mixtures were incubated with the anti-His antibody decorated magnetic beads for 1 h at room temperature under rotation. Magnetic beads were separated (neodymium magnets) and washed 3X with buffer (57.7 mM Na2HPO4, 42.3 mM NaH2PO4, pH 7.0). Immunoprecipitated proteins were eluted with 20 μl of 4X sample buffer (10 min, 70°C) and analyzed by western blotting (anti-IL1β antibody).
SDS-PAGE was used to separate the immune-precipitated proteins in a 4–20% Tris-Glycine gel for 90 min at 125 V. The proteins were transferred for 2 h at 25 V onto an Immobilion PVDF membrane. After blocking the membrane using PBS containing 0.2% (w/v) I-Block and 0.1% Tween 20 for 1 h at room temperature (or overnight at 4°C), the membrane was subjected to a 2-h incubation with an anti-IL1β antibody (1:1,000, Cell Signaling Technology) while undergoing continuous agitation. The membrane was washed with PBS containing 0.1% Tween 20, then subjected to a 1-h incubation with the secondary anti-mouse horseradish-peroxidase-conjugated anti-IgG antibody (1:10,000, Invitrogen). The western blot was developed using a chemiluminescence system (SuperSignal^TM West Dura Extended Duration Substrate) and imaged using a Kodak 4000MM system.
Statistical tests (One-way ANOVA with Dunnett's Multiple Comparison adjustment) and non-linear regression of the dose response pull down peptide inhibition data were performed using GraphPad Prism.

Test [2] deals with IL-1β signaling in HEK-Blue IL-1β cells. Put plainly: HEK-Blue IL-1β reporter cell assay (SEAP). Type of test: cell-based, human. The settings on record: 2 μM peptide; IL-1β 2.5 ng/ml; triplicate. On the procedure:
HEK 293 reporter cells for human IL-1β (HEK-Blue IL-1β cells, Invivogen) were used to test the ability of peptide variants to inhibit IL-1β signaling pathway. HEK-Blue IL-1β cells were used according to manufacturer instructions. HEK-Blue IL-1β cells were cultured in Dulbecco's modified Eagle's medium (DMEM, Gibco) additioned with 10% heat inactivated fetal bovine serum (ATCC), 4.5 g/l glucose (Sigma), and 2 mM L-glutamine (ATCC) at 37°C, 5% CO2, in a humidified environment. HEK-Blue IL-1β cells (5,000 cells/well) were plated into 96-well tissue culture plates. The following day, cells were pre-treated for 1 h with peptide variants (Peptides 1.0, 1.1, 1.2, 2.0, 3.0, 4.0, and 4.3) or soluble IL-1RAcP (2 ng/μL) as a positive control. The cells were then stimulated with IL-1β at 2.5 ng/ml for 30 min. Following stimulation, the medium was changed and the inhibitors were added again to the plate. The cells were then left to incubate overnight. The next day, 160 μl of QUANTI-Blue (Invivogen) were added to each well. The plate was incubated at 37°C for 1 h. Then, the plate was placed in a spectrophotometer to detect the levels of secreted embryonic alkaline phosphatase (SEAP) in each well at a wavelength of 625–655 nm. Each peptide was tested in triplicate and an ANOVA test with Dunnett's test for multiple comparisons was performed to determine significance of inhibition.

Test [3] concerns the target T1, interleukin 1β (IL-1β) (UniProt P01584 117-269).
T1 construct: interleukin 1β used at 20 ng/µl in the pull-down; Species is surmised as human: PDB 4DEP was used for modelling, the reporter cells are for human IL-1β and the MS search used the human database
Put plainly: pull-down; IL-1β (20 ng/µl), IL-1RI (100 ng/µl) and 6xHis-tagged IL-1RAcP (40 ng/µl) incubated with or without peptide at various concentrations in 50 µl PBS, 1 h, room temperature; captured on anti-6xHis antibody on Protein G magnetic beads; washed in phosphate buffer pH 7.0; western blot with anti-IL-1β; band intensity relative to the control without peptide. The settings on record: both partners purified. Background: In western blotting, separated proteins are transferred to a membrane and probed.

Test [4] has as its target T1, interleukin 1β (IL-1β). Put plainly: cell-based or functional assay.

Bridges are numbered along the chain shown (N, C = ends). Where no end group is shown, it is not given here.

From PMC7886681, “Characterization and Validation of Arg286 Residue of IL-1RAcP as a Potential Drug Target for Osteoarthritis” (Frontiers in Chemistry, 2021) come the findings set out here.

IL-1β:IL-1RI:IL-1RAcP complex, sequence (P01584 117-269): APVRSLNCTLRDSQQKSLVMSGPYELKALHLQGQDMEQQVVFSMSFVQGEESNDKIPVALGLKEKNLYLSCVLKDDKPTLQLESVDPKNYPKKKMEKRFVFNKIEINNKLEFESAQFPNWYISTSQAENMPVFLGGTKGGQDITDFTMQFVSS
IL-1β:IL-1RI:IL-1RAcP complex, sequence (P14778 18-332 limits assumed): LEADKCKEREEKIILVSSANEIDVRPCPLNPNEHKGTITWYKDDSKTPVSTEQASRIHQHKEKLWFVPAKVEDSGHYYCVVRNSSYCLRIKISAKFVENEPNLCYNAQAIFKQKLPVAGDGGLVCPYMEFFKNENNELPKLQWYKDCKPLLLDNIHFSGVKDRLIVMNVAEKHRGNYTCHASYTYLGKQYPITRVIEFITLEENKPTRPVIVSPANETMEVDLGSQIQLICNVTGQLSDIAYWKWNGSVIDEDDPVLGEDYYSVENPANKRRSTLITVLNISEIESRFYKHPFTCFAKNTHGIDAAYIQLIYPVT

On to “T C N Q SISHS R T QNQ TRTQ C LS (disulfide) [Peptide 4.2, cyclized Gln/Asn variant, cycle length 18]”, for which the results for the “IL-1β concentration in the pulled down fraction, % of positive control” value in test [1] (0.04 nM peptide) and in test [1] (40 nM peptide) were 102% and 36%, respectively. The “IL-1β pull down inhibition” value in test [1] was “higher than 45%”. In addition, the “difference in inhibition of IL-1β signaling versus Peptide 1.0” value in test [2] is 42%.

In the case of “T C NESISHS R TEDETRTQ C LS (disulfide) [Peptide 1.2, cyclized Peptide 1.0 variant, cycle length 18]”, the “IL-1β concentration in the pulled down fraction, % of positive control” value in test [1] (0.4 nM peptide) was determined as 60%; in test [1] (4 nM peptide), 51%; in test [1] (40 nM peptide) it was 35%. For the same molecule, the “IL-1β pull down inhibition” value in test [1] is listed as “higher than 45%”. The “difference in inhibition of IL-1β signaling versus Peptide 1.0” value in test [2] is given as 28%.

In the case of “TINESISHS A TEDETRTQILS [Peptide 2.0, negative control peptide with alanine instead of arginine in position 286]”, the “IL-1β in the pulled-down fraction, % of positive control” value in test [1] (25 nM peptide) came to 99%.

In the case of “TINESISHS R TEDETRTQILS [Peptide 1.0, synthetic peptide mimicking IL-1RAcP Arg286 hot spot region]”, in test [1] (12.5 nM peptide, relative to positive control without inhibitor), the IL-1β pull down was determined as 60%. In addition, the “reduction of IL-1β pull down” value in test [1] (124 and 62 nM peptide) is 26–30%. Besides, the “IL-1β pull down inhibition” value in test [1] was “higher than 45%”.

As for TINESISHSRTEDETRMQILS [Peptide 3.0], in test [1] (0.04 nM peptide), the “IL-1β concentration in the pulled down fraction, % of positive control” value turned out to be 112%. Also, the “IL-1β pull down reduced to” value in test [1] (40 and 4 nM peptide, relative to positive control without inhibitor) was 8–9%. In addition, in test [1] (His-tagged IL-1RAcP pull-down, IL-1β western blot band intensity relative to positive control, non-linear regression of dose response, read-out: IC50, inhibition of IL-1β complex formation), the IC50 – broadly, the concentration at which inhibition is half-maximal – came out at 0.304 nM. The “IL-1β pull down inhibition” value in test [1] is reported as “higher than 45%”.

B1: Peptide 1.0 (peptide)
peptide: TINESISHSRTEDETRTQILS
notes: Linear, 21 residues; also called parent Peptide 1.0; lead peptide; source: synthetic peptide (Peptide 2.0, Inc; Fmoc/tBu solid phase, RP-HPLC to 98% purity)
Regarding B1, the “% IL-1β pull down with IL-1RAcP relative to no peptide (peptide at 12.5 nM)” value in the test with interleukin 1β (IL-1β) [3] stood at 60%.

B2: Peptide 1.2 (peptide)
peptide: TCNESISHSRTEDETRTQCLS
modifications: disulfide 2-19
notes: IL-1RAcP stretch around Arg286 with two isoleucines replaced by cysteine; source: synthetic peptide (Peptide 2.0, Inc; Fmoc/tBu solid phase, RP-HPLC to 98% purity)
As for B2, the “HEK-Blue IL-1β reporter cells (SEAP), inhibition of IL-1β signalling at 2 µM peptide, difference from Peptide 1.0; blocks formation of the IL-1β complex with IL-1RI and IL-1RAcP” value with interleukin 1β (IL-1β) [4] came to 28%. Also, in the test with interleukin 1β (IL-1β) [3], the “% IL-1β pull down with IL-1RAcP relative to no peptide (peptide at 0.4 nM)” value came out at 60%, the “% IL-1β pull down with IL-1RAcP relative to no peptide (peptide at 4 nM)” value came to 51% and the “% IL-1β pull down with IL-1RAcP relative to no peptide (peptide at 40 nM)” value was 35%.

B3: Peptide 3.0 (peptide)
peptide: TINESISHSRTEDETRMQILS
notes: IL-1RAcP stretch around Arg286 with methionine at 293; source: synthetic peptide (Peptide 2.0, Inc; Fmoc/tBu solid phase, RP-HPLC to 98% purity)
Turning to B3, the “HEK-Blue IL-1β reporter cells (SEAP), inhibition of IL-1β signalling at 2 µM peptide, difference from Peptide 1.0; blocks formation of the IL-1β complex with IL-1RI and IL-1RAcP” value in the test with interleukin 1β (IL-1β) [4] turned out to be 54%. 0.303 nM corresponded to half-maximal inhibition in the test with interleukin 1β (IL-1β) [3] (IC50).

B4: Peptide 4.2 (peptide)
peptide: TCNQSISHSRTQNQTRTQCLS
modifications: disulfide 2-19
notes: IL-1RAcP stretch around Arg286 with two cysteines for isoleucines and Gln/Asn for Glu/Asp; source: synthetic peptide (Biomatik; Fmoc/tBu solid phase, RP-HPLC to 98% purity)
On to B4, for which, in the test with interleukin 1β (IL-1β) [4], the “HEK-Blue IL-1β reporter cells (SEAP), inhibition of IL-1β signalling at 2 µM peptide, difference from Peptide 1.0; blocks formation of the IL-1β complex with IL-1RI and IL-1RAcP” value was found to be 42%. In addition, the “% IL-1β pull down with IL-1RAcP relative to no peptide (peptide at 40 nM)” value in the test with interleukin 1β (IL-1β) [3] stood at 36%.
